These results are taken from the NIST ThermoML archive (doi:10.1021/je0342116).

The series is described as follows: activity coefficient (dimensionless); of the first substance listed, at infinite dilution; xn = mol fraction of the nth substance listed. To be noted: Liquid, Chromatography, x1 = 0.

± gives the expanded uncertainty stated by the source.

Take `C=CC` [propene] + CC(C)O: the activity coefficient (249.96 K) stood at 3.8 ± 0.2; the activity coefficient (270.04 K) was 3.7 ± 0.2; the activity coefficient (290 K) was found to be 3.7 ± 0.2; the activity coefficient (310 K) was 3.6 ± 0.2; the activity coefficient (330 K) stood at 3.4 ± 0.2.
Regarding `C=CCC` [1-butene] + CC(C)O, the activity coefficient is 4.4 ± 0.2 (249.97 K); 4.4 ± 0.2 (270.03 K); 4.3 ± 0.2 (290 K); 4.1 ± 0.2 (310 K); 3.9 ± 0.2 (330 K).
On to `C=CC=C` [1,3-butadiene] + CC(C)O, for which the activity coefficient by setting is: (249.97 K) 3.9 ± 0.2; (270.03 K) 3.8 ± 0.2; (290 K) 3.7 ± 0.2; (310 K) 3.5 ± 0.2; (330 K) 3.3 ± 0.2.
On to `CCC` [propane] + CC(C)O, for which the activity coefficient runs as follows: (249.96 K) 4.5 ± 0.2; (270.04 K) 4.5 ± 0.2; (290 K) 4.4 ± 0.2; (310 K) 4.3 ± 0.2; (330 K) 4.2 ± 0.2.
Regarding `CC(C)C` [2-methylpropane] + CC(C)O, the activity coefficient (249.96 K) is 5.4 ± 0.3; the activity coefficient (270.04 K) amounted to 5.3 ± 0.2; the activity coefficient (290 K) was 5.2 ± 0.2; the activity coefficient (310 K) amounted to 5 ± 0.2; the activity coefficient (330 K) amounted to 4.7 ± 0.2.
As to `C=C(C)C` [2-methylpropene] + CC(C)O, the activity coefficient (249.97 K) was determined as 4.4 ± 0.2; the activity coefficient (270.03 K) worked out at 4.3 ± 0.2; the activity coefficient (290 K) amounted to 4.2 ± 0.2; the activity coefficient (310 K) was 4 ± 0.2; the activity coefficient (330 K) worked out at 3.8 ± 0.2.
`C/C=C/C` [(E)-2-butene] + CC(C)O: the activity coefficient by setting is: (249.96 K) 4.3 ± 0.2; (270.04 K) 4.3 ± 0.2; (290 K) 4.2 ± 0.2; (310 K) 4.1 ± 0.2; (330 K) 3.9 ± 0.2.
Consider `CCCC` [butane] + CC(C)O, for which the activity coefficient runs as follows: (249.97 K) 5.2 ± 0.2; (270.03 K) 5.1 ± 0.2; (290 K) 5.1 ± 0.2; (310 K) 4.9 ± 0.2; (330 K) 4.6 ± 0.2.
